In article PMC5433008 (BMC Neuroscience, 2017):
Where a SMILES comes first, the peptide text is derived from it.

Columns and labels:
[1] = tested on: recombinant NMDAr comprised of either GluN1a–GluN2A or GluN1a–GluN2B subunits; assay type: cell-based
[2] = tested on: NMDA-evoked currents in cultured rat embryonic hippocampal neurons (NMDAr); conditions: for IC50: pH 7.4
GluN1a–GluN2B = assay type: cell-based
GluN1a–GluN2A = assay type: cell-based

Row | Compound | difference between control-NMDA and wash-NMDA (reversibility) [1] | off rate (from short-lived current increase on simultaneous removal of NMDA + peptide) [1] | reversibility, recombinant NMDAr versus neuronal NMDAr [1] | dose dependence of inhibition [2] | off rate (from transient current increase on simultaneous removal of NMDA + peptide) [2] | reversibility of block [2] | use-dependence of block [2] | IC50 [2] | block of NMDA-evoked currents, GluN1a–GluN2B (GluN1a–GluN2B) | block of NMDA-evoked currents, GluN1a–GluN2A (GluN1a–GluN2A)
1 | CC[C@H](C)[C@H](NC(=O)[C@H](CC(C)C)NC(=O)[C@H](CC(=O)O)NC(=O)[C@H](CCC(N)=O)NC(=O)[C@H](CC(N)=O)NC(=O)[C@H](CC(=O)O)NC(=O)[C@H](CCC(N)=O)NC(=O)[C@H](CC(C)C)NC(=O)[C@H](CC(=O)O)NC(=O)[C@H](CC(=O)O)NC(=O)[C@H](CCC(=O)O)NC(=O)CN)C(=O)N[C@@H](CCCNC(=N)N)C(=O)N[C@@H](CC(=O)O)C(=O)N[C@@H](CCCCN)C(=O)N[C@@H](CO)C(=O)N[C@@H](CC(N)=O)C(=O)O [EAR16] (H-GEDDLQDNQDLIRDKSN-OH) | No significant difference | fast enough that would allow binding of NMDA early on during washout | faster from the recombinant NMDAr than from NMDAr expressed in neuronal cells | dose-dependent | fast enough that would allow binding of NMDA early on during washout | highly reversible | no clear use-dependence | 241 µM | 84% | 50%
2 | CC[C@H](C)[C@H](NC(=O)[C@H](CC(C)C)NC(=O)[C@H](CC(=O)O)NC(=O)[C@H](CCC(N)=O)NC(=O)[C@H](C)NC(=O)[C@H](CC(=O)O)NC(=O)[C@H](CCC(N)=O)NC(=O)[C@H](Cc1ccc(O)cc1)NC(=O)[C@H](CC(=O)O)NC(=O)[C@H](CC(=O)O)NC(=O)[C@H](CCC(=O)O)NC(=O)CN)C(=O)N[C@@H](CCCNC(=N)N)C(=O)N[C@@H](CC(=O)O)C(=O)N[C@@H](CCCCN)C(=O)N[C@@H](CO)C(=O)N[C@@H](CC(N)=O)C(=O)O [EAR18] (H-GEDDYQDAQDLIRDKSN-OH) |  |  |  |  |  |  |  | 176 µM |  | 
